In PubChem BioAssay AID256 (DTP/NCI, 2004):
Several values for one entry are separate records, joined by “and”; a condition that tells them apart may be missing. Equal values may be shown once. Toxic doses and inconclusive results are not listed. How the source made its calls: active means survival T/C of 150% or more; inactive means T/C below 125% in these data.

System: CD2F1 mice, L1210 leukemia ip, survival T/C
Assay: NCI In Vivo Anticancer Drug Screen. Data for tumor model L1210 Leukemia (intraperitoneal) in CD2F1 (CDF1) mice
Conditions: higher = longer survival
Procedure, shortened: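 Activity against a transplanted murine tumor was judged by comparing the compound group with a vehicle group. The outcome in the treated animals was divided by that in the controls.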

[1] = endpoint: mean survival time, dose: 75.0 mg/kg/injection, schedule: Q01DX001 (ip), vehicle: saline with Tween-80
[2] = endpoint: mean survival time, dose: 150.0 mg/kg/injection, schedule: Q01DX001 (ip), vehicle: saline with Tween-80
[3] = endpoint: mean survival time, dose: 100.0 mg/kg/injection, schedule: Q04DX003 (ip), vehicle: saline
[4] = endpoint: mean survival time, dose: 200.0 mg/kg/injection, schedule: Q04DX003 (ip), vehicle: saline
[5] = endpoint: mean survival time, dose: 100.0 mg/kg/injection, schedule: Q01DX001 (ip), vehicle: saline with Tween-80
[6] = endpoint: mean survival time, dose: 200.0 mg/kg/injection, schedule: Q01DX001 (ip), vehicle: saline with Tween-80
[7] = endpoint: mean survival time, dose: 100.0 mg/kg/injection, schedule: Q04DX003 (ip), vehicle: saline with Tween-80
[8] = endpoint: mean survival time, dose: 200.0 mg/kg/injection, schedule: Q04DX003 (ip), vehicle: saline with Tween-80
[9] = endpoint: mean survival time, dose: 400.0 mg/kg/injection, schedule: Q04DX003 (ip), vehicle: saline with Tween-80
[10] = endpoint: mean survival time, dose: 50.0 mg/kg/injection, schedule: Q01DX009 (ip), vehicle: saline with Tween-80
[11] = endpoint: mean survival time, dose: 100.0 mg/kg/injection, schedule: Q01DX009 (ip), vehicle: saline with Tween-80
[12] = endpoint: mean survival time, dose: 200.0 mg/kg/injection, schedule: Q01DX009 (ip), vehicle: saline with Tween-80
[13] = endpoint: mean survival time, dose: 400.0 mg/kg/injection, schedule: Q01DX009 (ip), vehicle: saline with Tween-80
[14] = endpoint: mean survival time, dose: 100.0 mg/kg/injection, schedule: Q01DX009 (ip), vehicle: saline
[15] = endpoint: mean survival time, dose: 200.0 mg/kg/injection, schedule: Q01DX009 (ip), vehicle: saline
[16] = endpoint: mean survival time, dose: 400.0 mg/kg/injection, schedule: Q01DX001 (ip), vehicle: saline with Tween-80

Measured: T/C

CC(C)(C)C(Br)C(=O)O (stereo not given)
inactive: [1] 97 % of control | [2] 97 % of control

O=C(O)c1ccco1
inactive: [3] 94 % of control | [4] 95 % of control

CCCCC(C)C1(CCC)NC(C)(C)CC(C)O1 (stereo not given)
inactive: [5] 97 % of control | [6] 101 % of control

O=C(COc1ccc(Br)cc1C(=O)O)Nc1ccccc1
inactive: [7] 96 % of control | [8] 97 % of control | [9] 94 % of control

CN(C)c1nc(=[N+](C)C)ss1
inactive: [10] 104 % of control | [11] 101 % of control and 107 % of control | [7] 102 % of control | [12] 93 % of control and 107 % of control | [8] 98 % of control | [13] 93 % of control | [9] 90 % of control

CSc1nc(NC2OC(CO)C(O)C(O)C2O)cc(=O)n1C (stereo not given)
inactive: endpoint: median survival time, dose: 12.5 mg/kg/injection, schedule: Q01DX005 (ip), vehicle: saline 102 % of control | endpoint: median survival time, dose: 25.0 mg/kg/injection, schedule: Q01DX005 (ip), vehicle: saline 100 % of control | endpoint: median survival time, dose: 50.0 mg/kg/injection, schedule: Q01DX005 (ip), vehicle: saline 102 % of control | endpoint: median survival time, dose: 100.0 mg/kg/injection, schedule: Q01DX005 (ip), vehicle: saline 102 % of control | endpoint: median survival time, dose: 200.0 mg/kg/injection, schedule: Q01DX005 (ip), vehicle: saline 100 % of control

CC(Cl)CN(CC(C)Cl)c1ccc(S(=O)(=O)Nc2ncccn2)cc1 (stereo not given)
inactive: endpoint: mean survival time, dose: 35.0 mg/kg/injection, schedule: Q01DX009 (ip), vehicle: other 114 % of control

CCCSCC
inactive: endpoint: mean survival time, dose: 25.0 mg/kg/injection, schedule: Q01DX009 (ip), vehicle: saline with Tween-80 98 % of control | [10] 106 % of control | [11] 95 % of control and 96 % of control

ClCC[Se](Cl)(Cl)c1ccccc1
inactive: endpoint: mean survival time, dose: 0.78 mg/kg/injection, schedule: Q01DX009 (ip), vehicle: saline 96 % of control and 110 % of control | endpoint: mean survival time, dose: 1.56 mg/kg/injection, schedule: Q01DX009 (ip), vehicle: saline 108 % of control | endpoint: mean survival time, dose: 3.12 mg/kg/injection, schedule: Q01DX009 (ip), vehicle: saline 108 % of control and 112 % of control | endpoint: mean survival time, dose: 6.25 mg/kg/injection, schedule: Q01DX009 (ip), vehicle: saline 115 % of control and 122 % of control

CC(=O)C1C(=O)C(=O)OC1C (stereo not given)
inactive: endpoint: mean survival time, dose: 50.0 mg/kg/injection, schedule: Q01DX009 (ip), vehicle: saline 102 % of control | [14] 98 % of control | [15] 101 % of control

FCCc1cccc(C(F)(F)F)c1
inactive: [5] 103 % of control | endpoint: mean survival time, dose: 100.0 mg/kg/injection, schedule: Q04DX003 (ip), vehicle: saline sonified 94 % of control | [6] 101 % of control | endpoint: mean survival time, dose: 200.0 mg/kg/injection, schedule: Q04DX003 (ip), vehicle: saline sonified 98 % of control | [16] 101 % of control | endpoint: mean survival time, dose: 400.0 mg/kg/injection, schedule: Q04DX003 (ip), vehicle: saline sonified 98 % of control

O=S(=O)(Nc1ccc(CCc2ccc(NS(=O)(=O)c3ccccc3)cc2)cc1)c1ccccc1
inactive: [5] 95 % of control | [6] 90 % of control | [16] 92 % of control

Nc1nc(N)c(N)c(N)n1
inactive: [1] 94 % of control | [11] 90 % of control | [7] 98 % of control | [2] 101 % of control | [12] 104 % of control | endpoint: mean survival time, dose: 300.0 mg/kg/injection, schedule: Q01DX001 (ip), vehicle: saline with Tween-80 103 % of control | [13] 93 % of control

O=P(Nc1ccccc1)(OCc1ccccc1)N(CCCl)CCCl (stereo not given)
inactive: endpoint: mean survival time, dose: 62.5 mg/kg/injection, schedule: Q01DX010 (ip), vehicle: saline 104 % of control | endpoint: mean survival time, dose: 125.0 mg/kg/injection, schedule: Q01DX010 (ip), vehicle: saline 103 % of control | endpoint: mean survival time, dose: 250.0 mg/kg/injection, schedule: Q01DX010 (ip), vehicle: saline 101 % of control

COCCN1CCC(C)(CO)C1 (stereo not given)
inactive: [14] 94 % of control | [15] 94 % of control | endpoint: mean survival time, dose: 400.0 mg/kg/injection, schedule: Q01DX009 (ip), vehicle: saline 100 % of control

CC(=O)CCC(=O)OC1CCCCC1
inactive: [7] 102 % of control | [8] 97 % of control | [9] 97 % of control

O=C(Cn1ccc(=O)[nH]c1=O)c1cc2ccccc2[nH]1
inactive: endpoint: mean survival time, dose: 100.0 mg/kg/injection, schedule: Q04DX002 (ip), vehicle: saline with Tween-80 93 % of control | endpoint: mean survival time, dose: 200.0 mg/kg/injection, schedule: Q04DX002 (ip), vehicle: saline with Tween-80 93 % of control | endpoint: mean survival time, dose: 400.0 mg/kg/injection, schedule: Q04DX002 (ip), vehicle: saline with Tween-80 93 % of control

NC(=O)c1nc(Br)n(C2OC(CO)C(O)C2O)c1N (stereo not given)
inactive: endpoint: median survival time, dose: 44.0 mg/kg/injection, schedule: Q01DX005 (ip), vehicle: saline 104 % of control | endpoint: median survival time, dose: 88.0 mg/kg/injection, schedule: Q01DX005 (ip), vehicle: saline 101 % of control | endpoint: median survival time, dose: 175.9 mg/kg/injection, schedule: Q01DX005 (ip), vehicle: saline 102 % of control

CCCCNC(=O)NC(=O)CCl
inactive: [3] 97 % of control | [4] 101 % of control | endpoint: mean survival time, dose: 400.0 mg/kg/injection, schedule: Q04DX003 (ip), vehicle: saline 97 % of control

COC(=O)c1ccn2c1CCC2
inactive: endpoint: mean survival time, dose: 25.0 mg/kg/injection, schedule: Q01DX009 (ip), vehicle: Klucel (hydroxypropylcellulose) (HPC) 92 % of control | endpoint: mean survival time, dose: 50.0 mg/kg/injection, schedule: Q01DX009 (ip), vehicle: Klucel (hydroxypropylcellulose) (HPC) 87 % of control | endpoint: mean survival time, dose: 100.0 mg/kg/injection, schedule: Q01DX009 (ip), vehicle: Klucel (hydroxypropylcellulose) (HPC) 91 % of control | endpoint: mean survival time, dose: 200.0 mg/kg/injection, schedule: Q01DX009 (ip), vehicle: Klucel (hydroxypropylcellulose) (HPC) 97 % of control | endpoint: mean survival time, dose: 400.0 mg/kg/injection, schedule: Q01DX009 (ip), vehicle: Klucel (hydroxypropylcellulose) (HPC) 87 % of control

O=C(OC1C=Cc2ccccc21)c1ccc([N+](=O)[O-])cc1 (stereo not given)
inactive: [5] 97 % of control | [6] 90 % of control | [16] 97 % of control

OC(CCc1ccccc1)(C(F)(F)F)C(F)(F)F
inactive: endpoint: mean survival time, dose: 100.0 mg/kg/injection, schedule: Q04DX003 (ip), vehicle: Klucel (hydroxypropylcellulose) (HPC) 92 % of control | endpoint: mean survival time, dose: 200.0 mg/kg/injection, schedule: Q04DX003 (ip), vehicle: Klucel (hydroxypropylcellulose) (HPC) 95 % of control | endpoint: mean survival time, dose: 400.0 mg/kg/injection, schedule: Q04DX003 (ip), vehicle: Klucel (hydroxypropylcellulose) (HPC) 97 % of control

NS(=O)(=O)c1cccc(C(=O)O)c1
inactive: [5] 98 % of control | [6] 94 % of control | [16] 98 % of control

O=C(CC(c1ccc(Cl)cc1)P(=O)(c1ccccc1)c1ccccc1)c1ccccc1 (stereo not given)
inactive: [11] 90 % of control | [12] 98 % of control | [13] 97 % of control

CCCCCCCCOc1nccc(N)n1
inactive: endpoint: mean survival time, dose: 18.75 mg/kg/injection, schedule: Q01DX001 (ip), vehicle: saline with Tween-80 105 % of control | endpoint: mean survival time, dose: 37.5 mg/kg/injection, schedule: Q01DX001 (ip), vehicle: saline with Tween-80 100 % of control | [1] 94 % of control

O=C1OCc2ccc3ccccc3c21
inactive: endpoint: mean survival time, dose: 50.0 mg/kg/injection, schedule: Q01DX001 (ip), vehicle: saline 97 % of control | endpoint: mean survival time, dose: 100.0 mg/kg/injection, schedule: Q01DX001 (ip), vehicle: saline 89 % of control | endpoint: mean survival time, dose: 200.0 mg/kg/injection, schedule: Q01DX001 (ip), vehicle: saline 93 % of control | endpoint: mean survival time, dose: 400.0 mg/kg/injection, schedule: Q01DX001 (ip), vehicle: saline 93 % of control
